Laboratory results as given in ChEMBL document CHEMBL5154848, “Synthesis of heterocyclic ring-fused analogs of HMG499 as novel degraders of HMG-CoA reductase that lower cholesterol” (Eur J Med Chem, 2022).

Legend:
Assay type in all cases: cell-based
[1] = target: T1, 3-hydroxy-3-methylglutaryl-coenzyme A reductase (Cricetulus griseus, UniProt P00347); assay: Induction of degradation of hamster HMGCR (TM1-8)-GFP (1 to 346 residues) transfected in CHO-7 cells incubated for 16 hrs in sterol-depleted medium by fluorescence based microplate reader assay
T1 sequence (P00347 whole entry): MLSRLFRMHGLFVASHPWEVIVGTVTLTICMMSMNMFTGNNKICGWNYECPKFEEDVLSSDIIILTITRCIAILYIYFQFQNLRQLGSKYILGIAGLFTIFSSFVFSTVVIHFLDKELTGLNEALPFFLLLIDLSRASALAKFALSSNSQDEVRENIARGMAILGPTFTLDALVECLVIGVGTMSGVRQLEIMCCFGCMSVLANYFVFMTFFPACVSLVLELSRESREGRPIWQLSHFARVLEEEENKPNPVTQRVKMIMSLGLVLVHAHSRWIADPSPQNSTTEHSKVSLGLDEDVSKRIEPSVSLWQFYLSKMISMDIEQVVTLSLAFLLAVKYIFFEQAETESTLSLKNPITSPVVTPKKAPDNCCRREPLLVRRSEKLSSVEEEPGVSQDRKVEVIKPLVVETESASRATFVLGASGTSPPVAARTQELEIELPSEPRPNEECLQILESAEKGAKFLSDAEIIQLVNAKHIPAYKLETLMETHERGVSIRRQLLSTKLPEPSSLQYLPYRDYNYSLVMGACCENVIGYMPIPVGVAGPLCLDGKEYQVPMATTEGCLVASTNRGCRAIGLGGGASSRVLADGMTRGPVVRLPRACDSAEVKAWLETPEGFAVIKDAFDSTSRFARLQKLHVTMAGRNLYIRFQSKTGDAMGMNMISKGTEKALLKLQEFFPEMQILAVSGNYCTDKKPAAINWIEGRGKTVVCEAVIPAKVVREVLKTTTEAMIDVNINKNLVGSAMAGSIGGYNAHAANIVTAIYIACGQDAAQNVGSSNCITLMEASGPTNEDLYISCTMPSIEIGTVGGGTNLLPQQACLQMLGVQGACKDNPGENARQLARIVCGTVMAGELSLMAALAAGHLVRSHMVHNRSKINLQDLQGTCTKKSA

[2] = Toxicity in human SV589 cells assessed as cholesterol accumulation in lysosome at 10 uM incubated for 16 hrs by immunofluorescence based confocal microscopy; conditions: sv-589, 16 h
[3] = Toxicity in human SV589 cells assessed as cholesterol accumulation in lysosome at 2.5 uM incubated for 16 hrs by immunofluorescence based confocal microscopy; conditions: sv-589, 16 h

SMILES	EC50 [1]	Activity [2]	Activity [3]
CC(=O)n1cnc2c1C(C)(C)C1=CC[C@H]3[C@@H]4CC[C@H]([C@H](C)CC(=O)N5CCOCC5)[C@@]4(C)CC[C@@H]3[C@@]1(C)C2	280 nM	–	–
C=CCC(O)(CC=C)CCC[C@@H](C)[C@H]1CC[C@H]2[C@@H]3[C@@H](O)C=C4C(C)(C)[C@@H](O)CC[C@]4(C)[C@H]3CC[C@]12C.Cl	430 nM	Toxic	–
CC(=O)n1ncc2c1C(C)(C)C1=CC[C@H]3[C@@H]4CC[C@H]([C@H](C)CCC(=O)N5CCCCC5)[C@@]4(C)CC[C@@H]3[C@@]1(C)C2	1260 nM	–	–
CC(=O)n1ncc2c1C(C)(C)C1=CC[C@H]3[C@@H]4CC[C@H]([C@H](C)CCC(=O)O)[C@@]4(C)CC[C@@H]3[C@@]1(C)C2	2660 nM	Non-Toxic	–
C[C@H](CCC(=O)O)[C@H]1CC[C@H]2[C@@H]3CC=C4C(C)(C)c5nccnc5C[C@]4(C)[C@H]3CC[C@]12C	5020 nM	Non-Toxic	–
CC(=O)n1ncc2c1C(C)(C)C1=CC[C@H]3[C@@H]4CC[C@H]([C@H](C)CCC(=O)Nc5ncc([N+](=O)[O-])s5)[C@@]4(C)CC[C@@H]3[C@@]1(C)C2	4800 nM	–	–
CC(C)C(=O)n1cnc2c1C(C)(C)C1=C[C@H](O)[C@H]3[C@@H]4CC[C@H]([C@H](C)CCC(=O)N5CCOCC5)[C@@]4(C)CC[C@@H]3[C@@]1(C)C2	730 nM	Toxic	–
C[C@H](CCC(=O)O)[C@H]1CC[C@H]2[C@@H]3CC=C4C(C)(C)c5[nH]ncc5C[C@]4(C)[C@H]3CC[C@]12C	3990 nM	Non-Toxic	–
C[C@H](CCC(=O)N1CCOCC1)[C@H]1CC[C@H]2[C@@H]3CC=C4C(C)(C)c5nnsc5C[C@]4(C)[C@H]3CC[C@]12C	830 nM	–	–
CCC(O)(CC)CCCC[C@@H](C)[C@H]1CC[C@H]2[C@@H]3[C@@H](O)C=C4C(C)(C)[C@@H](O)CC[C@]4(C)[C@H]3CC[C@]12C	410 nM	Toxic	–
CCC(O)(CC)CCC[C@@H](C)[C@H]1CC[C@H]2[C@@H]3[C@@H](O)C=C4C(C)(C)[C@@H](O)CC[C@]4(C)[C@H]3CC[C@]12C	410 nM	Toxic	–
CC(C)C(=O)n1cnc2c1C(C)(C)C1=CC[C@H]3[C@@H]4CC[C@H]([C@H](C)CCC(=O)N5CCOCC5)[C@@]4(C)CC[C@@H]3[C@@]1(C)C2	430 nM	Non-Toxic	–
C=CCC(O)(CC=C)CCC[C@@H](C)[C@H]1CC[C@H]2[C@@H]3[C@@H](O)C=C4C(C)(C)[C@@H](O)CC[C@]4(C)[C@H]3CC[C@]12C	410 nM	Toxic	–
CCOC(=O)c1n[nH]c2c1C[C@@]1(C)C(=CC[C@H]3[C@@H]4CC[C@H]([C@H](C)CCC(=O)N5CCOCC5)[C@@]4(C)CC[C@@H]31)C2(C)C	530 nM	–	–
CC(=O)n1ncc2c1C(C)(C)C1=CC[C@H]3[C@@H]4CC[C@H]([C@H](C)CCC(=O)NCCN5CCOCC5)[C@@]4(C)CC[C@@H]3[C@@]1(C)C2	2730 nM	–	–
C[C@H](CCC(=O)O)[C@H]1CC[C@H]2[C@@H]3CC=C4C(C)(C)c5c(cnn5-c5ccccc5)C[C@]4(C)[C@H]3CC[C@]12C	8800 nM	Non-Toxic	–
CCN(CC)CCO[C@H]1CC[C@@]2(C)C(=CC[C@@H]3[C@@H]2CC[C@]2(C)C(=O)CC[C@@H]32)C1.Cl	–	–	Toxic
C[C@H](CCCCC(C)(C)O)[C@H]1CC[C@H]2[C@@H]3[C@@H](O)C=C4C(C)(C)[C@@H](O)CC[C@]4(C)[C@H]3CC[C@]12C	410 nM	Toxic	–
CCNC(=O)CC[C@@H](C)[C@H]1CC[C@H]2[C@@H]3CC=C4C(C)(C)c5c(cnn5C(C)=O)C[C@]4(C)[C@H]3CC[C@]12C	1630 nM	–	–
C[C@H](CCCC(C)(C)O)[C@H]1CC[C@H]2[C@@H]3[C@@H](O)C=C4C(C)(C)[C@@H](O)CC[C@]4(C)[C@H]3CC[C@]12C	410 nM	Toxic	–

The remaining molecules from weak to strong by EC50 [1], led by results:

EC50 [1]	SMILES	Activity [2]	Activity [3]
43900 nM	CC(=O)n1ncc2c1C(C)(C)C1=CC[C@H]3[C@@H]4CC[C@H]([C@H](C)CCC(=O)Nc5nc6c(C)cccc6s5)[C@@]4(C)CC[C@@H]3[C@@]1(C)C2	–	–
31400 nM	CC(=O)n1ncc2c1C(C)(C)C1=CC[C@H]3[C@@H]4CC[C@H]([C@H](C)CCC(=O)Nc5nc6ccccc6s5)[C@@]4(C)CC[C@@H]3[C@@]1(C)C2	–	–
28100 nM	Cc1nc2c(o1)C(C)(C)C1=CC[C@H]3[C@@H]4CC[C@H]([C@H](C)CCC(=O)N5CCOCC5)[C@@]4(C)CC[C@@H]3[C@@]1(C)C2	–	–
12600 nM	CC(=O)n1ncc2c1C(C)(C)C1=CC[C@H]3[C@@H]4CC[C@H]([C@H](C)CCC(=O)Nc5ncc(C)s5)[C@@]4(C)CC[C@@H]3[C@@]1(C)C2	–	–
8250 nM	C[C@H](CCC(=O)N1CCOCC1)[C@H]1CC[C@H]2[C@@H]3CC=C4C(C)(C)c5nc(N)ncc5C[C@]4(C)[C@H]3CC[C@]12C	–	–
8160 nM	CC(=O)n1cnc2c1C(C)(C)C1=C[C@H](O)[C@H]3[C@@H]4CC[C@H]([C@H](C)CCC(=O)N5CCOCC5)[C@@]4(C)CC[C@@H]3[C@@]1(C)C2	Toxic	–
5810 nM	C[C@H](CCC(=O)O)[C@H]1CC[C@H]2[C@@H]3CC=C4C(C)(C)c5nonc5C[C@]4(C)[C@H]3CC[C@]12C	Non-Toxic	–
5410 nM	CC(=O)n1ncc2c1C(C)(C)C1=CC[C@H]3[C@@H]4CC[C@H]([C@H](C)CCC(=O)Nc5ccc(C)cc5)[C@@]4(C)CC[C@@H]3[C@@]1(C)C2	–	–
4940 nM	C[C@H](CCC(=O)O)[C@H]1CC[C@H]2[C@@H]3CC=C4C(C)(C)c5sc(N)nc5C[C@]4(C)[C@H]3CC[C@]12C	Non-Toxic	–
4470 nM	CC(=O)n1ncc2c1C(C)(C)C1=CC[C@H]3[C@@H]4CC[C@H]([C@H](C)CCC(=O)Nc5ccccc5C)[C@@]4(C)CC[C@@H]3[C@@]1(C)C2	–	–
3370 nM	Cc1nc2c(s1)C(C)(C)C1=CC[C@H]3[C@@H]4CC[C@H]([C@H](C)CCC(=O)O)[C@@]4(C)CC[C@@H]3[C@@]1(C)C2	Non-Toxic	–
2030 nM	CCCNC(=O)CC[C@@H](C)[C@H]1CC[C@H]2[C@@H]3CC=C4C(C)(C)c5c(cnn5C(C)=O)C[C@]4(C)[C@H]3CC[C@]12C	–	–
1840 nM	CCOC(=O)c1noc2c1C[C@@]1(C)C(=CC[C@H]3[C@@H]4CC[C@H]([C@H](C)CCC(=O)N5CCOCC5)[C@@]4(C)CC[C@@H]31)C2(C)C	–	–
1090 nM	CC(=O)n1cnc2c1C(C)(C)C1=CC[C@H]3[C@@H]4CC[C@H]([C@H](C)CCCCC(=O)N5CCOCC5)[C@@]4(C)CC[C@@H]3[C@@]1(C)C2	–	–
980 nM	CC(=O)n1cnc2c1C(C)(C)C1=CC[C@H]3[C@@H]4CC[C@H]([C@H](C)CCCC(=O)N5CCOCC5)[C@@]4(C)CC[C@@H]3[C@@]1(C)C2	–	–
820 nM	CNC(=O)CC[C@@H](C)[C@H]1CC[C@H]2[C@@H]3CC=C4C(C)(C)c5c(cnn5C(C)=O)C[C@]4(C)[C@H]3CC[C@]12C	–	–
760 nM	C=C(C)C(=O)n1cnc2c1C(C)(C)C1=CC[C@H]3[C@@H]4CC[C@H]([C@H](C)CCC(=O)N5CCOCC5)[C@@]4(C)CC[C@@H]3[C@@]1(C)C2	Non-Toxic	–
650 nM	CCC(=O)n1cnc2c1C(C)(C)C1=CC[C@H]3[C@@H]4CC[C@H]([C@H](C)CCC(=O)N5CCOCC5)[C@@]4(C)CC[C@@H]3[C@@]1(C)C2	Non-Toxic	–
630 nM	CCC(O)(CC)CC[C@@H](C)[C@H]1CC[C@H]2[C@@H]3CC=C4C(C)(C)c5c(ncn5C(C)=O)C[C@]4(C)[C@H]3CC[C@]12C	Non-Toxic	–
520 nM	CCCC(=O)n1cnc2c1C(C)(C)C1=CC[C@H]3[C@@H]4CC[C@H]([C@H](C)CCC(=O)N5CCOCC5)[C@@]4(C)CC[C@@H]3[C@@]1(C)C2	Non-Toxic	–
480 nM	CC(=O)n1ncc2c1C(C)(C)C1=CC[C@H]3[C@@H]4CC[C@H]([C@H](C)CCC(=O)NC5CCOCC5)[C@@]4(C)CC[C@@H]3[C@@]1(C)C2	–	–
430 nM	CC(=O)N1CCC(NC(=O)CC[C@@H](C)[C@H]2CC[C@H]3[C@@H]4CC=C5C(C)(C)c6c(cnn6C(C)=O)C[C@]5(C)[C@H]4CC[C@]23C)CC1	–	–
410 nM	CC(=O)n1cnc2c1C(C)(C)C1=CC[C@H]3[C@@H]4CC[C@H]([C@H](C)C(=O)N5CCOCC5)[C@@]4(C)CC[C@@H]3[C@@]1(C)C2	–	–
